Tests used:
Type in all cases: in vivo
[1] = tested on: small-flower umbrella sedge (Cyperus difformis); test: Test C flooded paddy test plant response; conditions: Flood, 250 g ai/ha; scale of 0 to 100 where 0 is no effect and 100 is complete control; 13 to 15 days
Outline: (§1)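 Scale 0 (no effect) to 100 (complete control), assigned visually versus controls after 13–15 d greenhouse. Application: directly to paddy water, 3 cm flood depth kept constant, 2-leaf stage.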

[2] = tested on: barnyardgrass (Echinochloa crus-galli); test: Test C flooded paddy test plant response; conditions: Flood, 250 g ai/ha; scale of 0 to 100 where 0 is no effect and 100 is complete control; 13 to 15 days
Outline: as §1

[3] = tested on: ducksalad (Heteranthera limosa); test: Test C flooded paddy test plant response; conditions: Flood, 250 g ai/ha; scale of 0 to 100 where 0 is no effect and 100 is complete control; 13 to 15 days
Outline: as §1

rice (Oryza sativa) = test: Test C flooded paddy test plant response; conditions: Flood, 250 g ai/ha; scale of 0 to 100 where 0 is no effect and 100 is complete control; 13 to 15 days
Outline: as §1

[4] = tested on: wheat (Triticum aestivum); test: Test B pre-/postemergence plant response
Outline: (§2)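 Steps: plant seeds in loam soil–sand mix; spray soil preemergence, and in parallel spray 2–10 cm one- to two-leaf plants postemergence; hold ~10 days in greenhouse; visually rate injury against untreated controls (0 = no effect, 100 = complete control).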

[5] = tested on: pigweed (Amaranthus retroflexus); test: Test B pre-/postemergence plant response
Outline: as §2

corn (Zea mays) = test: Test B pre-/postemergence plant response
Outline: as §2

[6] = tested on: Italian ryegrass (Lolium multiflorum); test: Test B pre-/postemergence plant response
Outline: as §2

[7] = tested on: barnyardgrass (Echinochloa crus-galli); test: Test B pre-/postemergence plant response
Outline: as §2

[8] = tested on: ragweed (common ragweed, Ambrosia elatior); test: Test B pre-/postemergence plant response
Outline: as §2

[9] = tested on: giant foxtail (Setaria faberii); test: Test B pre-/postemergence plant response
Outline: as §2

kochia (Kochia scoparia) = test: Test B pre-/postemergence plant response
Outline: as §2

[10] = tested on: galium (catchweed bedstraw, Galium aparine); test: Test B postemergence plant response
Outline: (§3)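 Visual injury rating, 0–100 (0 = no effect, 100 = complete control), vs untreated controls ~10 days after postemergence spray; greenhouse; potted loam soil/sand; plants 2–10 cm, 1–2 leaf stage.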

[11] = tested on: blackgrass (Alopecurus myosuroides); test: Test B postemergence plant response
Outline: as §3

[12] = 125 g ai/ha, postemergence, 0 to 100 scale, 0 no effect, 100 complete control
[13] = Postemergence, 31 g ai/ha, 0 to 100 scale (0 no effect, 100 complete control)
[14] = 31 g ai/ha, Preemergence, 0 to 100 scale where 0 is no effect and 100 is complete control
[15] = Preemergence, 125 g ai/ha, 0 to 100 scale (0 no effect, 100 complete control)
[16] = 500 g ai/ha, postemergence, 0 to 100 scale, 0 no effect, 100 complete control
[17] = Preemergence, 500 g ai/ha, 0 to 100 scale where 0 is no effect and 100 is complete control

Structure (SMILES) | Sedge, Umbrella plant response rating [1] | Barnyardgrass plant response rating [2] | Ducksalad plant response rating [3] | Rice plant response rating (rice (Oryza sativa)) | Plant response rating, Wheat [4, 12] | Plant response rating, Pigweed [5, 12] | Pigweed plant response rating [5, 15] | Plant response rating, Corn (corn (Zea mays); [12]) | Plant response rating, Ryegrass, Italian [6, 12] | Ryegrass, Italian plant response rating [6, 15] | Plant response rating, Barnyardgrass [7, 12] | Barnyardgrass plant response rating [7, 15] | Plant response rating, Ragweed [8, 12] | Ragweed plant response rating [8, 15] | Plant response rating, Foxtail, Giant [9, 12] | Foxtail, Giant plant response rating [9, 15] | Plant response rating, Kochia (kochia (Kochia scoparia); [12]) | Kochia plant response rating (kochia (Kochia scoparia); [15]) | Plant response rating, Galium [10, 12] | Plant response rating, Blackgrass [11, 12] | other results
COc1cnc(Oc2ccccc2-c2cc(C(F)F)no2)nc1 [Compound 213] | 0 | 0 | 75 | 0 | 10 | 80 | 100 | 10 | 0 | 0 | 0 | 40 | 60 | 0 | 20 | 80 | 100 | 50 | 80 | 10 | Plant response rating, Wheat [4, 13]: 0; Plant response rating, Pigweed [5, 14]: 80; Plant response rating, Pigweed [5, 13]: 30; Plant response rating, Corn (corn (Zea mays); [13]): 0; Plant response rating, Ryegrass, Italian [6, 14]: 0; Plant response rating, Ryegrass, Italian [6, 13]: 0; Plant response rating, Barnyardgrass [7, 14]: 0; Plant response rating, Barnyardgrass [7, 13]: 0; Plant response rating, Ragweed [8, 14]: 0; Plant response rating, Ragweed [8, 13]: 10; Plant response rating, Foxtail, Giant [9, 14]: 0; Plant response rating, Foxtail, Giant [9, 13]: 0; Plant response rating, Kochia (kochia (Kochia scoparia); [14]): 10; Plant response rating, Kochia (kochia (Kochia scoparia); [13]): 60; Plant response rating, Galium [10, 13]: 50; Plant response rating, Blackgrass [11, 13]: 0
Clc1cnc(Oc2ccccc2-c2cocn2)nc1 [Compound 214] | 0 | 0 | 0 | 0 | 0 | 10 | 0 | 0 | 0 | 0 | 0 | 0 | 0 | 0 | 0 | 0 | 0 | 0 | 10 | 0 | Plant response rating, Wheat [4, 13]: 0; Plant response rating, Pigweed [5, 14]: 0; Plant response rating, Pigweed [5, 13]: 0; Plant response rating, Corn (corn (Zea mays); [13]): 0; Plant response rating, Ryegrass, Italian [6, 14]: 0; Plant response rating, Ryegrass, Italian [6, 13]: 0; Plant response rating, Barnyardgrass [7, 14]: 0; Plant response rating, Barnyardgrass [7, 13]: 0; Plant response rating, Ragweed [8, 14]: 0; Plant response rating, Ragweed [8, 13]: 0; Plant response rating, Foxtail, Giant [9, 14]: 0; Plant response rating, Foxtail, Giant [9, 13]: 0; Plant response rating, Kochia (kochia (Kochia scoparia); [14]): 0; Plant response rating, Kochia (kochia (Kochia scoparia); [13]): 0; Plant response rating, Galium [10, 13]: 0; Plant response rating, Blackgrass [11, 13]: 0
CC(=O)c1cc(-c2ccccc2Oc2ncc(Cl)cn2)no1 [Compound 215] | 0 | 0 | 0 | 0 | 0 | 20 | 20 | 20 | 0 | 0 | 20 | 40 | 0 | 0 | 20 | 20 | 0 | 0 | 20 | 0 | Plant response rating, Wheat [4, 16]: 20; Plant response rating, Pigweed [5, 16]: 100; Plant response rating, Pigweed [5, 17]: 90; Plant response rating, Corn (corn (Zea mays); [16]): 40; Plant response rating, Ryegrass, Italian [6, 16]: 50; Plant response rating, Ryegrass, Italian [6, 17]: 0; Plant response rating, Barnyardgrass [7, 16]: 90; Plant response rating, Barnyardgrass [7, 17]: 90; Plant response rating, Ragweed [8, 16]: 20; Plant response rating, Ragweed [8, 17]: 0; Plant response rating, Foxtail, Giant [9, 16]: 80; Plant response rating, Foxtail, Giant [9, 17]: 90; Plant response rating, Kochia (kochia (Kochia scoparia); [16]): 10; Plant response rating, Kochia (kochia (Kochia scoparia); [17]): 0; Plant response rating, Galium [10, 16]: 70; Plant response rating, Blackgrass [11, 16]: 40

Source: US10131652B2, “Pyrimidinyloxy benzene derivatives as herbicides” (E. I. DU PONT DE NEMOURS AND COMPANY, priority 2014, dated 2018)
